Patent publication US20240325370A1, “THERAPEUTIC REGIMENS OF A DEGRADER OF BRD9” (FOGHORN THERAPEUTICS INC., priority 2021, published 2024)
Entries after “also recorded” stand apart in the source; their conditions may differ.

What was measured:
[1] = system: SYO-1 human biphasic synovial sarcoma tumor; assay: SYO-1 synovial sarcoma xenograft efficacy, daily i.p. dosing; assay type: in vivo; conditions: 1 mg/kg i.p. daily, 3 weeks; NOD SCID mice
Experimental: Method: NOD SCID mice (Beijing Anikeeper Biotech, Beijing) were inoculated subcutaneously on the right flank with the single cell suspension of SYO-1 human biphasic synovial sarcoma tumor cells (5×106) in 100 μL Dulbecco's Modified Eagle Medium (DMEM) with 10% fetal bovine serum (FBS). The mice were randomized into either control group [10% dimethyl sulfoxide (DMSO), 40% polyethylene glycol (PEG400) and 50% water], or treatment group D1 when the mean tumor size reached about 117 mm^3. Mice were dosed daily through intraperitoneal (i.p.) route over the course of 3 weeks. All dose volumes were adjusted by body weights in terms of mg/kg.

[2] = biological target: T1, BRD9 (Homo sapiens, UniProt Q9H8M2); assay: Kinetic experiments of BRD9 degradation in synovial sarcoma cell lines; assay type: cell-based
T1 sequence (Q9H8M2 1-597): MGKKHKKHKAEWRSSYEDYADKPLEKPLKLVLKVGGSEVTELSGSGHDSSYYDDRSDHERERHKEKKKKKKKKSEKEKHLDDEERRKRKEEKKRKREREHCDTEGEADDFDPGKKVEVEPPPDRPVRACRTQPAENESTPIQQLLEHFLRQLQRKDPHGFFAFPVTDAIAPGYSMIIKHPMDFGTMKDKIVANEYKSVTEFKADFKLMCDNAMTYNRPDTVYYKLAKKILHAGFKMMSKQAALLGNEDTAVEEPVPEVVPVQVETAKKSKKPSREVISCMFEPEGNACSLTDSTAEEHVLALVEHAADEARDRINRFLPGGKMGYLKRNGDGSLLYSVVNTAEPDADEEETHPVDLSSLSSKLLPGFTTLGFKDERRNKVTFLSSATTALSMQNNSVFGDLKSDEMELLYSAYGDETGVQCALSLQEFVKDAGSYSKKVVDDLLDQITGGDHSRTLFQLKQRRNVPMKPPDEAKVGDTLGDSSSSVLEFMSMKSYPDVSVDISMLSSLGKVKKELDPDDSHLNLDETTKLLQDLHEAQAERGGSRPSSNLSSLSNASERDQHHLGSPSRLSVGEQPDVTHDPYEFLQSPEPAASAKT
Experimental: Kinetic Experiments in Synovial Sarcoma Cell Lines. To assess the rate of BRD9 protein degradation following treatment with compound D1, this compound was administered at a steady dose of 15 nM over multiple time points in SYO-1 and ASKA synovial sarcoma cell lines. After cell treatment, BRD9 protein levels were determined by western blot analyses.
Cells grown in flasks to log phase growth were washed with PBS and dissociated by adding TrypLE™ Express. Two wells were allocated per sample. Plates were incubated at 37° C. with 5% CO2 overnight.
The next day, cells were treated with 15 nM compound D1, with the final DMSO content of 0.1% (v/v) matching the untreated control. After the designated incubation periods for each sample, as indicated in FIGS. 29A and 29B, cells were harvested, resuspended in PBS, and centrifuged at 5,000 rpm for 5 minutes. After being washed twice with PBS, the resulting cell pellets were stored at −80° C.
Cells were processed for western blot analysis as follows (see Table 15 for specific conditions). Cell lysates were prepared by resuspending thawed pellets in RIPA lysis buffer with protease and phosphatase inhibitors and DNA nuclease enzymes. […] Samples were then analysed for total protein using BCA protein quantitation assay following manufacturer's instructions. […]

[3] = Interconversion between Enantiomer 1 and Enantiomer 2 in cell medium; assay type: physicochemical; conditions: Enantiomer 2 dosing, cell medium 37° C.; for Mean peak area ratio of Enantiomer 1 over Enantiomer 2 peak area ratio: 0.2 µM
Experimental: For the assessment of interconversion between Enantiomer 1 and Enantiomer 2 in cell medium, the following test was performed. […] At designated time point, aliquot (50 μL) was taken and processed by the addition of 150 μL of acetonitrile containing 0.1% formic acid and internal standard for LC/MS-MS analysis. Peak areas of both Enantiomer 1 and Enantiomer 2 were determined for each sample using a chiral specific analytical method.

[4] = Plasma exposure of compound S-D1 after the last dose; assay type: in vivo, mice
Experimental: The objective of this study was to provide proof-of-concept of anti-tumor efficacy with intermittent dosing schedules for compound S-D1 by IV administration. Groups of female SYO-1 tumor-bearing NOD SCID mice (n=10/group) were dosed IV with vehicle, compound D1 or compound S-D1 for 24 days according to treatments and dosing schedules shown in Table 10. Compound D1 was formulated in 10% DMSO/40% PEG400/50% water and compound S-D1 was formulated in 20% SBECD in 5 mM citrate buffer, final pH was adjusted to 5 with 1 N NaOH. For the compound S-D1 treatment groups, plasma samples were collected at designated time points following the last dosing. Plasma samples were acidified to stabilize the compound right after collection and analyzed for compound S-D1 concentrations.

[5] = biological target: T2, endogenous BRD9 (Homo sapiens, UniProt Q9H8M2); assay: MSD assay of endogenous BRD9 degradation in synovial sarcoma cell lines; assay type: cell-based; conditions: 6 hours, estimated from racemate compound D1 (about 50% active enantiomer)
T2 sequence (Q9H8M2 1-597): T1 sequence (Q9H8M2 1-597)

[6] = biological target: T1, BRD9; assay: Drug washout and competition experiments in SYO-1 cells; conditions: two washouts, five washes per washout step
Experimental: Drug Washout and Competition Experiments in SYO-1 Cells.
SYO-1 cells grown in flasks to log phase growth were washed with PBS and dissociated by adding TrypLE™ Express. The collected cells were resuspended in DMEM (high glucose, with GlutaMAX™ supplement) with 10% FBS.
Cells were collected using fresh media and measured for cell number. 1×10^6 cells were harvested for the 24-hour treatment sample and frozen down at −80° C. The remainder of the treated cells were washed five times with 10 ml fresh media, through sequential rounds of resuspension and centrifugation at 1,000 rpm for 5 minutes.
Another 1×10^6 cells were harvested for the 24-hour post-washout sample and frozen down at −80° C. The remainder of the cells were split off evenly into two separate 100 mm petri dishes and resuspended in 10 ml culture medium in each plate.
The remaining cells of each treatment group were washed five times with 10 mL fresh media. Cells were then seeded evenly into 6-well plates in 2 ml fresh media per well. 2 wells were allocated per collection time point.

Row | Mean peak area ratio of Enantiomer 1 over Enantiomer 2 peak area ratio ([3]; 0 h) | Mean peak area ratio of Enantiomer 1 over Enantiomer 2 peak area ratio ([3]; 0.5 h) | Mean peak area ratio of Enantiomer 1 over Enantiomer 2 peak area ratio ([3]; 2 h) | Mean peak area ratio of Enantiomer 1 over Enantiomer 2 peak area ratio ([3]; 6 h) | % Enantiomer 2 ([3]; 0 h) [%] | % Enantiomer 2 ([3]; 0.5 h) [%] | % Enantiomer 2 ([3]; 2 h) [%] | % Enantiomer 2 ([3]; 6 h) [%] | DC50 [5] [nM] | Structure (SMILES) | tumor growth inhibition [1] | BRD9 protein degradation ([2]; ASKA cells, upon 30 minutes of treatment, 15 nM) | time of treatment to markedly deplete BRD9 protein ([2]; SYO-1 cells, 100-fold of NanoLuc DC50 (15 nM)) [h] | exposure in plasma versus dose ([4]; from 0.05 to […] IV) | exposure in plasma versus dose ([4]; from 0.25 to 2 mg/kg IV) | BRD9 degradation after second washout (removal of binding competitors) [6]
1 | – | – | – | – | – | – | – | – | – | COc1cc(-c2cn(C)c(=O)c3cnc(N4CCC4)cc23)cc(OC)c1CN1CCC(CN2CCC3(CC2)CN(c2ccc4c(c2)C(=O)N(C2CCC(=O)NC2=O)C4)C3)CC1 (racemic) [Compound D1, 3-[6-(7-[[1-([4-[6-(azetidin-1-yl)-2-methyl-1-oxo-2,7-naphthyridin-4-yl]-2,6-dimethoxyphenyl]methyl)piperidin-4-yl]methyl]-2,7-diazaspiro[3.5]nonan-2-yl)-1-oxo-3H-isoindol-2-yl]piperidine-2,6-dione] | tumor growth inhibition | nearly complete BRD9 protein degradation | ≤ 2 | – | – | –
2 | 0.01 | 0.06 | 0.22 | 0.60 | 99 | 95 | 82 | 63 | 0.025 to 0.1 | COc1cc(-c2cn(C)c(=O)c3cnc(N4CCC4)cc23)cc(OC)c1CN1CCC(CN2CCC3(CC2)CN(c2ccc4c(c2)C(=O)N([C@H]2CCC(=O)NC2=O)C4)C3)CC1 (single isomer, unassigned) [Compound S-D1] | – | – | – | increased more than proportionally to dose | slightly less than proportionally to dose | retention of the BRD9-suppressive activity; also recorded: degraded again
